# Test results published in US20070059720A9 (priority 2004, published 2007).
# Like-named read-outs stand apart in the source and are kept apart here.
# Assays:
# [1] = tested on: TR breast cancer; settings: second-line therapy; cited from earlier work
# [2] = tested on: MCF-7 vector control cells; test: Anchorage-independent soft agar colony formation, MCF-7 vector control cells; assay type: cell-based, human; settings: vector control cells; 100 nM OHT plus 10 nM ICI or 20 nM PD98065
# Description: (§1) Cells were starved for 2 days in PRF MEM (InVitrogen) supplemented with 5% fetal bovine serum (FBS, Summit Biotechnology, Fort Collins, Colo.), 6 ng/ml insulin, 200 units/ml penicillin, and 200 μg/ml streptomycin. Soft agar assays were performed in sixwell plates. Into each well, 1.5 ml of prewarmed (50° C.) 0.7% SeaPlaque agarose (FMC, Rockland, Me.) was added and dissolved in PRF MEM supplemented with 5% charcoal stripped FBS (Summit, Fort Collins, Colo.) to serve as the bottom layer, and allowed to solidify at 4° C. until to use. 0.5×10^4 cells as a single cell suspension were suspended in prewarmed (37° C.) of the same media, 4 ml of 0.5% SeaPlaque agarose was then added, and this suspension then plated as the top layer by adding it dropwise to the solidified bottom layer plates. Plates were cooled for 2 hours, and then transferred to a 37° C. humidified incubator. Two days after plating, media containing control vehicle, 1 nM estradiol, 100 nM 4-OH-Tam, 100 nM OHT plus 10 nM ICI, or 100 nM OHT plus 20 nM […] was added to the top cell layer, and the appropriate media was replaced every two days. After 14 days, the colonies were fixed, and the colony number of colonies >50 cells from quadruplicate assays were then counted. The data shown is the mean colony number of four plates, and is representative of two independent experiments.
# (§2) In pancreatic cells, ectopic expression of MKP3 is reported to result in a suppression of cell growth (Fuqua et al., 2003). Thus, the growth characteristics of the MCF-7 stable MKP3 transfectants under different hormonal conditions were investigated using anchorageindependent soft agar assay (FIG. 4B).
# [3] = tested on: MCF-7-MKP3 cells; test: Anchorage-independent soft agar colony formation, MKP3-overexpressing MCF-7 transfectants; assay type: cell-based, human; settings: MKP3-transfected cells; 100 nM OHT plus 10 nM ICI or 20 nM
# Description: MCF-7 cells were originally obtained from Dr. Benita Katzenellebogen, but have been maintained in the inventors' laboratory for over 10 years (Fuqua et al., 2000). MCF-7 cells were maintained in Minimal Essential Medium (MEM, InVitrogen) supplemented with 5% fetal bovine serum (Summit Biotechnology, Fort Collins, Colo.), 200 U/ml penicillin, and 200 μg/ml streptomycin. Cells were incubated at 37° C. in 5% CO2. To generate MCF-7 cells stably overexpressing MKP3, 5 μg of the plasmid pcDNA3-MKP3-V5 (Furukawa et al., 2003) or empty vector (pcDNA3-His-V5, InVitrogen), were transfected into the cells using Fugene 6 reagent Roche Clinical Laboratories, Indianapolis, Ind.) in 100 mm tissue culture dishes following the manufacturer's protocol. Stable clones overexpressing MKP3 were selected as described (Fuqua et al., 2000), and positive clones were identified using immunoblot analysis with an anti-V5 antibody (1:5000 dilution)
# as §1, §2
# [4] = tested on: breast cancer; settings: cited from earlier work
# [5] = tested on: JNK; test: Immunoblot of phospho-JNK in MCF-7 transfectants; assay type: cell-based, human; settings: vector control cells treated with the inhibitor
# Description: (§3) Cells grown in 100 mm dishes were starved in phenol red-free (PRF), serum-free MEM (Specialty Media, Phillipsburg, N.J.) for 48 hours, and were then treated for 2 hours with vehicle (ethanol), estrogen (100 nM, 20), or OHT (100 nM). After treatment, cells were rinsed twice with ice-cold phosphate-buffered saline (PBS) and were then lysed immediately with 200 μl of cell lysis buffer (20 mM Tris HCl, pH 7.4, 150 mM NaCl, 1 mM B-glycerophosphate, 1 mM sodium orthovanadate, and 10% glycerol plus 1:100 proteinase inhibitor cocktail III) (Calbiochem, LaJolla, Calif.) per 100 mm tissue culture. The cell lysates were cleared by centrifugation at 16,100×g for 10 minutes at 4° C. Protein concentration was determined with the BCA Protein Assay kit (Pierce, Rockfold, Ill.) according to the manufacturer's directions. Equal amount of cell extracts were resolved under denaturing conditions by electrophoresis in 8-10% polyacrylamide gels containing sodium dodecyl sulfate (SDS-PAGE), and transferred to nitrocellulose membranes by electroblotting (Schleicher & Schuell, Keene, NH). […]
# [6] = tested on: ERα; test: Immunoblot of phospho-S118 ERα and total ERα in MCF-7 transfectants; assay type: cell-based, human; settings: control and Tam-treated MKP3.2 cells
# Description: (§4) Cells grown in 100 mm dishes were starved in phenol red-free (PRF), serum-free MEM (Specialty Media, Phillipsburg, N.J.) for 48 hours, and were then treated for 2 hours with vehicle (ethanol), estrogen (100 nM, 20), or OHT (100 nM). After treatment, cells were rinsed twice with ice-cold phosphate-buffered saline (PBS) and were then lysed immediately with 200 μl of cell lysis buffer (20 mM Tris HCl, pH 7.4, 150 mM NaCl, 1 mM B-glycerophosphate, 1 mM sodium orthovanadate, and 10% glycerol plus 1:100 proteinase inhibitor cocktail III) (Calbiochem, LaJolla, Calif.) per 100 mm tissue culture. The cell lysates were cleared by centrifugation at 16,100×g for 10 minutes at 4° C. Protein concentration was determined with the BCA Protein Assay kit (Pierce, Rockfold, Ill.) according to the manufacturer's directions. Equal amount of cell extracts were resolved under denaturing conditions by electrophoresis in 8-10% polyacrylamide gels containing sodium dodecyl sulfate (SDS-PAGE), and transferred to nitrocellulose membranes by electroblotting (Schleicher & Schuell, Keene, NH). After blocking of the transferred nitrocellulose membrane with TBST (20 mM Tris pH 7.6, 150 mM NaCl, 0.1% Tween-20) supplemented with 5% non-fat milk for 1 hour at room temperature, the membrane was incubated with primary antibodies either for 1 hour at room temperature (anti-ERα, 1:100 dilution; anti-AIB1, 1:100 dilution; anti-ERK2, 1:500 dilution; anti-Cyclin D1,1:500 dilution; anti-PR, C-19, 1:200 dilution; anti-p190, 1:1000 dilution; anti-V5, 1:5000 dilution), or overnight at 4° C. (anti-phospho MAPK, 1:1000 dilution; anti-phosphor-Ser118-ERα; 1:1000 dilution; MAPK p42/44, 1:1000 dilution), incubated with secondary antibodies for 1 hour at room temperature and then developed with Enhanced Chemiluminescence Reagents (Amersham Pharmacia Biotech, Piscataway, N.J.).
# [7] = tested on: cyclin D1 (CCND1); test: Immunoblot of CCND1 in MCF-7 transfectants; assay type: cell-based, human; settings: MKP3 overexpressing cells
# Description: as §3
# (§5) As expected with two hours of estrogen treatment, no induction of the two PR isoforms were detected in either the control vector (Con 1 and 2), or in the MKP3-transfected cells (FIG. 11A). […]
# [8] = tested on: ERK 1,2 MAPK; test: Immunoblot of phospho-MAPK in MCF-7 transfectants; assay type: cell-based, human
# Description: as §4
# MAPK activity is tightly regulated by phosphorylation and dephosphorylation. MKP3 participates in a bidirectional regulatory loop with ERK2 MAPK, whereby ERK2 substrate binding is associated with catalytic activation of MKP3, and activated MKP3 negatively regulates pERK2 (Camps et al., 1998). […] Immunoblot analysis with anti-V5 was used to detect ectopic MKP3 expression in the two MKP3 transfectants (FIG. 5A, top panel). FIGS. 5B and 5C provide quantitation of results in FIG. 5A.
# [9] = tested on: progesterone receptor (PR) A and B forms; test: Immunoblot of PR-A and PR-B in MCF-7 transfectants; assay type: cell-based, human; settings: MKP3 overexpressing cells
# Description: as §4, §5
SMILES,share of TR breast cancer patients who respond [1],effect on Tam-induced colony formation [2],effect on Tam-induced colony formation [3],benefit compared to tamoxifen ([4]; ER+/PR+ group),benefit compared to tamoxifen ([4]; ER+/PR− subgroup),pJNK level [5],effect on the increase in pS118 ERα [6],effect on tamoxifen induction of CCND1 [7],effect on the increase in pMAPK ([8]; control and Tam-treated MKP3.2 cells),"effect on activation of MAPK ([8]; vector control cells, all treatment conditions)",effect on PR-B levels in Tam-treated cells [9]
"C[C@]12CC[C@@H]3c4ccc(O)cc4C[C@@H](CCCCCCCCC[S+]([O-])CCCC(F)(F)C(F)(F)F)[C@H]3[C@@H]1CC[C@@H]2O (stereo partly shown) [ICI182,780]",About two-thirds,completely blocked,completely blocked,–,–,–,–,–,–,–,–
CC(C)(C#N)c1cc(Cn2cncn2)cc(C(C)(C)C#N)c1 [anastrazole],–,–,–,modest advantage,major benefit,–,–,–,–,–,–
COc1cccc(-c2cc(=O)c3ccccc3o2)c1N [PD98059],–,completely blocked,completely blocked,–,–,elevated,effectively inhibited,blocked,effectively inhibited,blocked activation of MAPK,restored
